Structures can show the parent of a compound that is named as a salt.
What was measured:
[1] = target: T1, human JAK2 (Homo sapiens, UniProt O60674); test: In Vitro JAK Kinase Assay (HTRF, phosphorylation of a biotinylated peptide), JAK2; type: biochemical; settings: assay of Example A
T1 construct: JAK2 (a.a. 828-1132); His tag (N); made in house; host or cells: insect cells (baculovirus)
Outline: (§1)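 HTRF detection (SA-APC plus Eu-labeled anti-phosphotyrosine Py20, 40 min after EDTA stop) quantified biotinylated-peptide phosphorylation. Kinase reactions with human JAK1 or JAK2 catalytic domains lasted 1 h at room temperature.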

[2] = target: T2, human JAK1 (Homo sapiens, UniProt P23458); test: In Vitro JAK Kinase Assay (HTRF, phosphorylation of a biotinylated peptide), JAK1; type: biochemical; settings: catalytic domain a.a. 837-1142, assay of Example A
T2 construct: human JAK1 (a.a. 837-1142); His tag (N); made in house; host or cells: insect cells (baculovirus)
Outline: as §1

T2 sequence (P23458 849-1154): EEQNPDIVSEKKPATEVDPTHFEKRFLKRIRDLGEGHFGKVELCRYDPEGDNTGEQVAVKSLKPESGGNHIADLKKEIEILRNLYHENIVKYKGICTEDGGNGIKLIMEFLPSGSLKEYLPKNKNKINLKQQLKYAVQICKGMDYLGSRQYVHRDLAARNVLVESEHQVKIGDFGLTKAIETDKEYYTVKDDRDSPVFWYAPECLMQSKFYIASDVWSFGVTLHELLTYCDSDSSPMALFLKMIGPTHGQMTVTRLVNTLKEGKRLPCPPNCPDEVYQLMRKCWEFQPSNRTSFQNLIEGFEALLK
T1 sequence (O60674 828-1132): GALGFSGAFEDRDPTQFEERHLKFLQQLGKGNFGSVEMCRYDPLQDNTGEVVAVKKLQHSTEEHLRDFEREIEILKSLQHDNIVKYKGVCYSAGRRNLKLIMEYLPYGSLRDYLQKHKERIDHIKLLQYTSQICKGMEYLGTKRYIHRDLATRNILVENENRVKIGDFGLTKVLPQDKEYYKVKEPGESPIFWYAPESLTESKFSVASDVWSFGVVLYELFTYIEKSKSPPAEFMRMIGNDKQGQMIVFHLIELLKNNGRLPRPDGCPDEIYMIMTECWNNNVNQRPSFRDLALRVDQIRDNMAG

Row | JAK2/JAK1 IC50 ratio ([1]; Table 4) | IC50 ([2]; Table 4) [nM] | JAK2/JAK1 IC50 ratio ([1]; Table 5) | IC50 ([2]; Table 5) [nM] | Compound
1 | ≧10 | < 10 |  |  | C[C@@H](O)CNCc1cc(O[C@H]2CC[C@@H](N3CC(CC#N)(n4cc(-c5ncnc6[nH]ccc56)cn4)C3)CC2)nc(C(F)(F)F)n1 [Example 18, {1-(cis-4-{[6-({[(2S)-2-hydroxypropyl]amino}methyl)-2-(trifluoromethyl)pyrimidin-4-yl]oxy}cyclohexyl)-3-[4-(7H-pyrrolo[2,3-d]pyrimidin-4-yl)-1H-pyrazol-1-yl]azetidin-3-yl}acetonitrile tris(trifluoroacetate) (salt)]
2 |  |  | ≧10 | < 10 | N#CCC1(n2cc(-c3ncnc4[nH]ccc34)cn2)CN([C@H]2CC[C@@H](Oc3cc(CNCC4CC4)cc(C(F)(F)F)n3)CC2)C1 [Example 76, {1-(cis-4-{[4-{[(cyclopropylmethyl)amino]methyl}-6-(trifluoromethyl)pyridin-2-yl]oxy}cyclohexyl)-3-[4-(7H-pyrrolo[2,3-d]pyrimidin-4-yl)-1H-pyrazol-1-yl]azetidin-3-yl}acetonitrile tris(trifluoroacetate)]
3 | ≧10 | < 10 |  |  | N#CCC1(n2cc(-c3ncnc4[nH]ccc34)cn2)CN([C@H]2CC[C@@H](Oc3cc(CN4CC[C@H](F)C4)nc(C(F)(F)F)n3)CC2)C1 [Example 31, {1-(cis-4-{[6-{[(3S)-3-fluoropyrrolidin-1-yl]methyl}-2-(trifluoromethyl)pyrimidin-4-yl]oxy}cyclohexyl)-3-[4-(7H-pyrrolo[2,3-d]pyrimidin-4-yl)-1H-pyrazol-1-yl]azetidin-3-yl}acetonitrile tris(trifluoroacetate)]
4 | ≧10 | < 10 |  |  | N#CCC1(n2cc(-c3ncnc4[nH]ccc34)cn2)CN([C@H]2CC[C@@H](Oc3cc(CCO)nc(C(F)(F)F)n3)CC2)C1 [Example 45, {1-(cis-4-{[6-(2-hydroxyethyl)-2-(trifluoromethyl)pyrimidin-4-yl]oxy}cyclohexyl)-3-[4-(7H-pyrrolo[2,3-d]pyrimidin-4-yl)-1H-pyrazol-1-yl]azetidin-3-yl}acetonitrile tris(trifluoroacetate)]
5 | ≧10 | < 10 |  |  | N#CCC1(n2cc(-c3ncnc4[nH]ccc34)cn2)CN([C@H]2CC[C@@H](Oc3cc(CN4CCCC4)nc(C(F)(F)F)n3)CC2)C1 [Example 25, {1-(cis-4-{[6-(pyrrolidin-1-ylmethyl)-2-(trifluoromethyl)pyrimidin-4-yl]oxy}cyclohexyl)-3-[4-(7H-pyrrolo[2,3-d]pyrimidin-4-yl)-1H-pyrazol-1-yl]azetidin-3-yl}acetonitrile tris(trifluoroacetate)]
6 |  |  | ≧10 | < 10 | N#CCC1(n2cc(-c3ncnc4[nH]ccc34)cn2)CN([C@H]2CC[C@@H](Oc3cc(C(=O)NC4CC4)cc(C(F)(F)F)n3)CC2)C1 [Example 86, 2-[(cis-4-{3-(cyanomethyl)-3-[4-(7H-pyrrolo[2,3-d]pyrimidin-4-yl)-1H-pyrazol-1-yl]azetidin-1-yl}cyclohexyl)oxy]-N-cyclopropyl-6-(trifluoromethyl)isonicotinamide bis(trifluoroacetate)]
7 |  |  | ≧10 | < 10 | N#CCC1(n2cc(-c3ncnc4[nH]ccc34)cn2)CN([C@H]2CC[C@@H](Oc3cc(CNCCCO)cc(C(F)(F)F)n3)CC2)C1 [Example 70, {1-(cis-4-{[4-{[(3-hydroxypropyl)amino]methyl}-6-(trifluoromethyl)pyridin-2-yl]oxy}cyclohexyl)-3-[4-(7H-pyrrolo[2,3-d]pyrimidin-4-yl)-1H-pyrazol-1-yl]azetidin-3-yl}acetonitrile tris(trifluoroacetate)]
8 |  |  | ≧10 | < 10 | N#CCC1(n2cc(-c3ncnc4[nH]ccc34)cn2)CN([C@H]2CC[C@@H](Oc3cc(CN4CCOCC4)cc(C(F)(F)F)n3)CC2)C1 [Example 92, {1-(cis-4-{[4-(morpholin-4-ylmethyl)-6-(trifluoromethyl)pyridin-2-yl]oxy}cyclohexyl)-3-[4-(7H-pyrrolo[2,3-d]pyrimidin-4-yl)-1H-pyrazol-1-yl]azetidin-3-yl}acetonitrile tris(trifluoroacetate)]
9 |  |  | ≧10 | < 10 | C[C@H](CO)NC(=O)c1cc(O[C@H]2CC[C@@H](N3CC(CC#N)(n4cc(-c5ncnc6[nH]ccc56)cn4)C3)CC2)nc(C(F)(F)F)c1 [Example 85, 2-[(cis-4-{3-(cyanomethyl)-3-[4-(7H-pyrrolo[2,3-d]pyrimidin-4-yl)-1H-pyrazol-1-yl]azetidin-1-yl}cyclohexyl)oxy]-N-[(1R)-2-hydroxy-1-methylethyl]-6-(trifluoromethyl)isonicotinamide bis(trifluoroacetate)]
10 | ≧10 | < 10 |  |  | N#CCC1(n2cc(-c3ncnc4[nH]ccc34)cn2)CN([C@H]2CC[C@@H](Oc3cc(CNCCCO)nc(C(F)(F)F)n3)CC2)C1 [Example 21, {1-(cis-4-{[6-{[(3-hydroxypropyl)amino]methyl}-2-(trifluoromethyl)pyrimidin-4-yl]oxy}cyclohexyl)-3-[4-(7H-pyrrolo[2,3-d]pyrimidin-4-yl)-1H-pyrazol-1-yl]azetidin-3-yl}acetonitrile tris(trifluoroacetate) (salt)]
11 |  |  | ≧10 | < 10 | N#CCC1(n2cc(-c3ncnc4[nH]ccc34)cn2)CN([C@H]2CC[C@@H](Oc3cc(CN4CC(O)C4)cc(C(F)(F)F)n3)CC2)C1 [Example 79, {1-(cis-4-{[4-[(3-hydroxyazetidin-1-yl)methyl]-6-(trifluoromethyl)pyridin-2-yl]oxy}cyclohexyl)-3-[4-(7H-pyrrolo[2,3-d]pyrimidin-4-yl)-1H-pyrazol-1-yl]azetidin-3-yl}acetonitrile tris(trifluoroacetate)]
12 | ≧10 | < 10 |  |  | CNCc1cc(O[C@H]2CC[C@@H](N3CC(CC#N)(n4cc(-c5ncnc6[nH]ccc56)cn4)C3)CC2)nc(C(F)(F)F)n1 [Example 4, {1-(cis-4-{[6-[(Methylamino)methyl]-2-(trifluoromethyl)pyrimidin-4-yl]oxy}cyclohexyl)-3-[4-(7H-pyrrolo[2,3-d]pyrimidin-4-yl)-1H-pyrazol-1-yl]azetidin-3-yl}acetonitrile tris(trifluoroacetate)]

Row | Compound | JAK2/JAK1 IC50 ratio ([1]; Table 4) | IC50 ([2]; Table 4) [nM] | JAK2/JAK1 IC50 ratio ([1]; Table 5) | IC50 ([2]; Table 5) [nM]
13 | 2-(1-(cis-4-((6-(((2-(1H-imidazol-4- yl)ethyl)amino)methyl)-2- (trifluoromethyl)pyrimidin-4- yl)oxy)cyclohexyl)-3-(4-(7H-pyrrolo[2,3- d]pyrimidin-4-yl)-1H-pyrazol-1- yl)azetidin-3-yl)acetonitrile tris(trifluoroacetate) (salt) [Example 39] | ≧10 | < 10 |  | 
14 | CCC(C)NC(=O)c1cc(O[C@H]2CC[C@@H](N3CC(CC#N)(n4cc(-c5ncnc6[nH]ccc56)cn4)C3)CC2)nc(C(F)(F)F)c1.O=C(O)C(F)(F)F.O=C(O)C(F)(F)F (relative stereo) [Example 88, N-(sec-butyl)-2-[(cis-4-{3-(cyanomethyl)-3-[4-(7H-pyrrolo[2,3-d]pyrimidin-4-yl)-1H-pyrazol-1-yl]azetidin-1-yl}cyclohexyl)oxy]-6-(trifluoromethyl)isonicotinamide bis(trifluoroacetate)] |  |  | ≧10 | < 10

Source: patent US9359358B2, “Cyclohexyl azetidine derivatives as JAK inhibitors” (Incyte Holdings Corporation, priority 2011, dated 2016)
